Holding throughout (assay type): cell-based
Experiment [1] deals with amyloid precursor protein (APP) proteolysis. Description: Repressor Release Assay (RRA). Particulars: all compounds tested at 20 μg/mL. How it is done: The beta amyloid inhibitory activity of many of the compounds of the present invention has been determined using the Repressor Release Assay (RRA). See, Table 5 below. A compound is considered active in RRA if it leads to at least a 1.5 fold increase in luciferase activity at 20 μg/mL and is non-toxic.
The compounds generated as described in the Examples above are tested in the RRA in accordance with published techniques [Shuey, D. J., Sheiffele, P., Jones, D., Cockett, M. I., and Quinet, E. M. (1999), “Repressor release: a useful tool for monitoring amyloid precursor protein (APP) proteolysis in mammalian cells”, Society for Neuroscience Abstracts, Vol. 25, 29th Annual Meeting of Society for Neuroscience, Miami Beach, Fla., Oct. 23-28, 1999]. Briefly, this assay is performed as follows.
CHO-K1 cells are cultured in whole DMEM media (DMEM—High Glucose with 10% fetal bovine serum, 1% Non-essential Amino Acids, and 1% Penicillin-Streptomycin) at 37° C. with 5% CO2. Two million cells are plated into 10-cm dishes 24 hrs prior to transfection.
Transient transfections are completed as recommended by Gibco BRL using their Lipofectamine Plus® system. First, 6 μg of pRSVO-luc and 6 μg of APP-lacI construct DNA are added to 460 μL Opti-Mem transfection media and incubated with the 30 μL Plus® reagent for 15 minutes. Then, a lipid mixture of 40 μL Lipofectamine Plus® reagent and 460 μL Opti-Mem transfection media is incubated with the DNA-Plus reagent mixture for 15 minutes. During the DNA-lipid incubation, the CHO-K1 cells are washed once and covered in 5.0 mL DMEM media without Penicillin-Streptomycin. The DNA-lipid preparation is then layered onto these cells and incubated at 37° C. overnight.
One and one half million transfected cells per well (100 μL total volume) are plated into sterile, opaque Packard 96-well Cultur-Plates™ in clear DMEM whole media (DMEM—without phenol red) and incubated at 37° C. with 5% CO2 for 3-5 hours.
Compounds are diluted using two different protocols; one protocol is used for compounds supplied neat (weighed powder in vial) and the other protocol is used for compounds supplied in solution (20 mM in DMSO in 96-well plates). For both protocols, 25 mM Hepes and 25 mM Hepes/1% DMSO are prepared fresh to be used as diluent. The Hepes/DMSO is used as the diluent control on all experimental plates.
The following table depicts the steps for compound dilution (please note that the last step is the addition of compound to cells/media in tissue culture plate):
Because some compounds arrive in 96-well format at 20 mM, the following represents the protocol for their dilution (note that an average molecular weight of these compounds was used to calculate these dilutions and as above, the last step is the addition of compound to cells/media in tissue culture plate):
Once compounds are diluted, they are applied in duplicate on cells in tissue culture plates (prepared above). Cells are incubated with compound at 37° C. with 5% CO2 for an additional 36-48 hours.
Luciferase assays (the LucLite® reagent, Packard) are performed and are read on a Packard TopCount® instrument. Media is removed from each 96-well plate and replaced with 100 μL PBS per well (with Mg^2+ and Ca^2+). An equal volume (100 μL) of the LucLite® lysis/substrate buffer is added to each well and the plates are sealed and mixed in the dark on a rotary shaker for about 15 to about 30 minutes at room temperature. Luciferase readings are then taken on the TopCount® instrument. Measurements are expressed as relative light units (RLU) and are calculated and analyzed in the MS Excel® program as follows.
A compound is considered active in RRA if it leads to at least a 1.5 fold increase in luciferase activity at 20 μg/mL and is non-toxic, as determined by loss of signal (≦0.75 fold increase). Fold increase is the amount of luciferase activity (measured in relative light units) over diluent control. SEM represents the standard error of the mean for fold increase (not shown).

Another experiment deals with beta amyloid 40. Description: Aβ40/42 ELISA Assay, Aβ40. Particulars: CHO cells carrying the APP-REP-NL plasmid, 22 hours. As for the experimental part: (§1) Compounds are diluted from DMSO stocks to 2 μM and below in a cell culture medium. Compounds are then applied to CHO cells carrying the APP-REP-NL plasmid [Sudhir et. al, J. Biolog. Chem. 267:25602-25608 (1992)] for a period of 22 hours. After the conditioning period, medium is collected, diluted in assay buffer containing protein, and samples, controls, and synthetic peptide standards are incubated on a prepared ELISA plate. Using a sandwich ELISA with antibodies specifically directed against the carboxyl terminus of beta amyloid 40 or 42 [analogous to the method reported by Haugabook et al., J. Neurosci. Methods 108:171-179 (2001) but using goat anti-mouse IgG1 (source: Southern Biotech) as the anchor, 6E10 as the capture antibody (Source: SENETEK), rabbit antiAβ40 and antiAβ42 (source: QCB) and APL-donkey anti-rabbit IgG (H+L, source: Southern Biotech) as the detection antibody], the effect of the compound treatment on the cellular production of extracellular beta amyloid is quantified. Cells treated with compound are subsequently incubated in cell culture medium containing […]. After a short incubation period, MTS/medium containing plates are read in a spectrophotometer to determine the extent to which compound toxicity affected the cell's metabolism and ability to synthesize beta amyloid. […]
Background: In an ELISA, binding on a coated surface is turned into a signal by an enzyme label.

Another experiment deals with beta amyloid 42. The experiment can be described thus: Aβ40/42 ELISA Assay, Aβ42. Particulars: CHO cells carrying the APP-REP-NL plasmid, 22 hours. How it is done: as §1

Regarding `C[C@H](NC(=O)Cc1cc(F)cc(F)c1)C(=O)N[C@H](C(=O)OC(C)(C)C)c1ccccc1` [DAPT], the “RRA data: fold increase of APPI (luciferase activity over diluent control)” value in experiment [1] is given as 18.5-28.1 fold increase. The EC50 in the experiment on beta amyloid 40 came out at 0.171 µM; in the experiment on beta amyloid 42, 0.128 µM.

As a reminder, the EC50 is the concentration needed to bring the measured effect to its halfway point. A higher EC50 goes with weaker potency.

These data come from patent US7858658B2, “Fluoro- and trifluoroalkyl-containing heterocyclic sulfonamide inhibitors of beta amyloid production and derivatives thereof” (Wyeth LLC, priority 2003, dated 2010).
